Assay results taken from US4935509A (priority 1989, dated 1990).
Read-outs that look alike come from different tables or passages of the source.

Legend:
[1] = tested on: P388 wild-type cells; test: MTT cell count (ID50), P388 wild-type leukemia cells in vitro; type: cell-based, murine; details: Mus musculus, read-out: ID50 P388/Wild
Experimental: (§1) In the various assays set forth below the colorimetric determination of the number of cells was carried out by the following procedure using MTT.
(§2) 3-(4,5-dimethylthiazol-2-yl)-2,5-dipenyl tetrazolium bromide (MTT) was prepared as a 5 mg/ml stock solution in phosphate buffered saline, filtered through a 0.22 μm filter and stored for up to two weeks at 4° C. while protected from light. For use in the assay it was diluted to 1 mg/ml in a pH 7.2 solution of phenol-red-free RPMI 1640 tissue culture medium supplemented with 1 mM sodium pyruvate and 50 μg/ml gentamycin. The assay was done in flat bottomed 96-well microtiter plates. Culture medium was removed from the wells by inverting and blotting the plate, fifty μl of MTT solution was added to the cells in each well, and each plate was incubated at 37° C. in an atmosphere of 5% CO2 in air. After incubation, each plate was centrifuged for 5 minutes at 8000×g and excess MTT removed by inverting and blotting. Fifty μl of 95% ethanol was added to each well and the plate was shaken (speed 6.5 for 15 minutes) to solubilize the formazan in each well. The optical density of each well was measured using an automatic plate reader with a test wavelength of 570 nm and a reference wavelength of 630 nm.
(§3) The differential in vitro activity of the above compounds as compared to vincristine and vinblastine with regard to P388 wild-type and P388 multiple-drug resistant leukemia was carried out by the following procedure.
(§4) Tissue culture-adapted lines of the P388 wild-type and P388 multiple-drug resistant cells (principally resistant to adriamycin) were obtained from the American Type Culture Collection, Rockville, MD. Experiments were conducted in 96-well microtiter plates with 300 cells from either line seeded in a volume of 200 μl of tissue culture medium (RPMI 1640 supplemented to 10% (v/v) with heat-inactivated fetal bovine serum (FBS) and to […] with 1-glutamine). Cells and varying log^10 dilutions of test compound were added to triplicate sets of wells on the same day and cultures were incubated for 5 days at 37° C. in a humidified atmosphere of 5% CO2 in air. The number of cells per well at the end of the experiment was determined colorimetrically by the reduction of MTT as described above.

[2] = tested on: P388 multiple-drug resistant cells; test: cells; type: cell-based, murine; details: for Fold-resistance: ID50 resistant cell line divided by ID50 wildtype cell line, 7200 min; for IC50: Mus musculus, read-out: ID50 P3/88/resist.
Experimental: as §1, §2, §3, §4

[3] = tested on: WI-38 fibroblast; test: MTT cell count (ID50), non-transformed human fibroblast cell line WI-38; type: cell-based; parameters: unit not given here; details: 6 days incubation
Experimental: as §1, §2
(§5) The in vitro effects of the novel compounds as compared to vinblastine and vincristine on three human colon cancer cell lines and one non-transformedhuman cell line were determined by the following procedure.
(§6) The non-transformed human fibroblast cell line, WI-38 and two of the human colon cancer cell lines, COLO-320-DM and HT-29, were obtained from the American Type Culture Collection, Rockville, MD and the third human colon cancer cell line, OM-1, was supplied by E. I. du Pont de Nemours and Co., Inc., Glenholden, PA. Both OM-1 and COLO-320-DM cells were maintained by serial passage in RPMI 1640 tissue culture medium supplemented to 10% (v/v) with heat-inactivated FBS. HT-29 cells were similarly maintained in McCoys 5A tissue culture medium supplemented with 10% heat-inactivated FBS. COLO-320-DM cells were detached by gentle scraping while HT-29 and OM-1 cells were detached using 0.25% trypsin and 0.05% trypsin, 0.5 mM EDTA solutions respectively. All cultures were incubated at 37° C. in a humidified environment of 5% CO2 in air. Experiments were conducted in 96-well flat-bottomed plates. The initial cell seeds per well for each cell line were 4,000 for WI- 38; 2,000 for COLO-320-DM; 750 for HT-29; and 3,000 for OM-1, each in the appropriate tissue culture medium. Cells were plated 24 hours before test compound was added to allow cells to recover from the effects of physical scraping and trypsinization. Varying log10 dilutions of drug were added to triplicate sets of wells and cultures were incubated for 6 days at 37° in a humidified atmosphere of 5% CO2 in air. The number of cells per well at the end of the experiment was determined colorimetrically by the reduction of MTT as described above and the results for each compounds shown in Table II. For purposes of comparison, the concentration of each test compound required to reduce the final cell number to one-half of the number in drug-free control cultures (ID50) is shown in Table II.

[4] = tested on: COLO-320-DM; test: MTT cell count (ID50), human colon cancer cell line COLO-320-DM; type: cell-based; details: 144 h, read-out: ID50 COLO-320
Experimental: as §1, §2, §5, §6

[5] = tested on: HT-29; test: MTT cell count (ID50), human colon cancer cell line HT-29; type: cell-based; details: HT-29, 144 h, read-out: ID50 HT-29
Experimental: as §1, §2, §5, §6

[6] = tested on: OM-1; test: MTT cell count (ID50), human colon cancer cell line OM-1; type: cell-based; details: 144 h, read-out: ID50 OM-1
Experimental: as §1, §2, §5, §6

[7] = In vivo effect against P388 leukemia in mice (TD50, ED50, T.I.); details: mouse, in vivo, ip
Source text: (§7) The in vivo effect of the novel compounds of this invention against P388 leukemia as compared to vinblastine and vincristine, were compared by the following procedure.
(§8) P388 murine leukemia cells were obtained from Southern Research Institute, Birmingham, Ala., and were maintained by serial i.p. passage in C57BL/6 mice. Female (C57BL/6×DBA/2) F1 (BDF) mice of 6-8 weeks of age from Jackson Laboratories, Bar Harbor, Maine, received 1×10^6 P388 cells by i.p. inoculation on day 0. Compounds were dissolved in saline and administered i.p. to 10 tumor-bearing mice per dose level on days 0-4 and 7-9 using 5 to 10 log2 dilutions from a concentration known to be toxic. […] The therapeutic index (T.I.) for each compound was calculated by the formula: [formula]

[8] = tested on: P388 leukemia; test: as above; details: for ED50: Mus musculus, P388, ip; for T.I. (therapeutic index): calculated from TD50 and ED50; for cured tumor-bearing mice at doses which were not toxic: P388 leukemia mice, non-toxic doses
Source text: as §7, §8

[9] = tested on: P388 leukemia; test: Increase in mean survival time of mice bearing P388 leukemia; type: in vivo; details: 0.12 mg/kg (optimal dose), i.p.
Experimental: The efficacy of the remaining compounds is clearly documented by the fact that each increased the mean survival time of tumor-bearing mice in a dose-dependentmanner. […] The percent increase in mean survival time (MST) which appears in Table IV was calculated by the following formula: [formula]

[10] = 120 h, P388 wild-type, 5 days incubation, MTT
[11] = 120 h, P388 multiple-drug-resistant (principally adriamycin), 5 days incubation, MTT

Row | SMILES | IC50 [1, 10] [nM] | Fold-resistance [2] | IC50 [2, 11] [nM] | ID50 WI-38 fibroblast [3] | IC50 ([4]; 6 days incubation, MTT) [nM] | IC50 ([5]; 6 days incubation, MTT) [nM] | IC50 ([6]; 6 days incubation, MTT) [nM] | LD50 [7] [mg/kg] | ED50 [8] [mg/kg] | T.I. (therapeutic index) [8] | IC50 ([1]; P388, 120 h) [nM] | IC50 ([2]; P388, 120 h) [nM] | IC50 [4] [nM] | IC50 [5] [nM] | IC50 [6] [nM] | cured tumor-bearing mice at doses which were not toxic [8] [%] | Mean Survival Time ([9]; vehicle 9.6 days (A), 10.1 days (E)) [days] | Increase in MST ([9]; vs vehicle) [%]
1 | CC[C@]1(O)C[C@@H]2CN(CCc3c([nH]c4ccccc34)[C@@](C(=O)OC)(c3cc4c(cc3OC)N(C)[C@H]3[C@@](O)(C(=O)OC)[C@H](OC(C)=O)[C@]5(CC)C=CCN6CC[C@]43[C@@H]65)C2)C1 [Vinblastine, reference compound] | 19 | 16 | 310 | 5 × 10^-8 | 50 | 30 | 50 | 0.79 | 0.41 | 1.9 | – | – | – | – | – | – | – | –
2 | CC[C@]12C=CCN3CC[C@@]4(c5cc([C@@]6(C(=O)OC)C[C@H]7CN(CCc8c6[nH]c6ccccc86)C[C@@H]6CCCC[C@H]76)c(OC)cc5N(C=O)[C@H]4[C@@](O)(C(=O)OC)[C@@H]1OC(C)=O)[C@@H]32 [Compound F, (4aR,8aS,9R,11S)-15-[1,2,4,4a,5,6,7,8,8a,9,10,11,12,17-tetradecahydro-11-(methoxycarbonyl)-indolo(2',3':6,7,)azonino(1,2,3-bc)isoquinolin-11-yl]N-demethyl-N-formylvindoline] | – | 12 | – | 1 × 10^-7 | – | – | – | 0.045 | 0.016 | 2.8 | 38 | 450 | 400 | 30 | 20 | 50 | – | –
3 | CC[C@]12C=CCN3CC[C@@]4(c5cc([C@@]6(C(=O)OC)C[C@H]7CN(CCc8c6[nH]c6ccccc86)Cc6ccccc67)c(OC)cc5N(C=O)[C@H]4[C@@](O)(C(=O)OC)[C@@H]1OC(C)=O)[C@@H]32 [Compound B, (9R,11S)-15-[1,2,4,9,10,11,12,17-octahydro-11-(methoxycarbonyl)-indolo(2',3':6,7)azonino(1,2,3-bc)isoquinolin-11-yl]N-demethyl-N-formylvindoline] | – | 11 | – | 1 × 10^-7 | – | – | – | 0.092 | 0.02 | 4.6 | 47 | 510 | 300 | 20 | 60 | 50 | – | –
4 | CC[C@]1(O)C[C@H]2CN(CCc3c([nH]c4ccccc34)[C@@](C(=O)OC)(c3cc4c(cc3OC)N(C=O)[C@H]3[C@@](O)(C(=O)OC)[C@H](OC(C)=O)[C@]5(CC)C=CCN6CC[C@]43[C@@H]65)C2)C1 [Vincristine, reference compound] | 7.2 | 57 | 410 | 7 × 10^-8 | 400 | 30 | 50 | 1 | 0.17 | 5.9 | – | – | – | – | – | – | – | –
5 | CC[C@]12C=CCN3CC[C@@]4(c5cc([C@@]6(C(=O)OC)C[C@H]7CN(CCc8c6[nH]c6ccccc86)C[C@@H]6CCCC[C@H]76)c(OC)cc5N(C)[C@H]4[C@@](O)(C(=O)OC)[C@@H]1OC(C)=O)[C@@H]32 [E, (4aR,8aS,9R,11S)-15-[1,2,4,4a,5,6,7,8,8a,9,10,11,12,17-tetradecahydro-11-(methoxycarbonyl)-indolo(2',3':6,7,)azonino(1,2,3-bc)isoquinolin-11-yl] vindoline] | – | 6 | – | 3 × 10^-7 | – | – | – | 0.18 | – | < 1 | 68 | 430 | 300 | 300 | 400 | – | 21.5 | 113
